Results published in US8846669B2, “Oxazolidinone derivative and medical composition containing same” (Legochem Biosciences, Inc., priority 2011, dated 2014).
≈ marks a conversion by molar mass, not a printed value. Where two headings read alike, the source gives them in different places.

How the values were obtained:
Test in all cases: In vitro antibacterial activity, broth microdilution MIC90
Format in all cases: cell-based
Moraxella catarrhalis = system: Moraxella catarrhalis
Procedure: (§1) MIC90 was measured by broth microdilution method based on CLSI standards [reference: Clinical and Laboratory Standards Institute Document. (2000) Methods for Dilution Antimicrobial Susceptibility Test for Bacteria that Grow Aerobically-Fifth Edition: M7-A5. CLSI, Villanova, Pa.].
(§2) Activities of 12 strains including Staphylococcus aureus, Methicillin Resistant Staphylococcus aureus, Staphylococcus epidermidis, Methicillin Resistant Staphylococcus epidermidis, Enterococcus faecalis, Vancomycin Resistant Enterococcus faecalis, Linezolid and Vancomycin Resistant Enterococcus faecalis, Enterococcus faecium, Vancomycin Resistant Enterococcus faecium, Linezolid and Vancomycin Resistant Enterococcus faecium, and Moraxella catarrhalis, were measured, and results are shown in Table 1 below.
(§3) The final concentration of test material in the antibacterial test was from 0.063 μg/mL (minimum) to 128 μg/mL (maximum), and the final concentration of DMSO used as an excipient was 2.5% (V/V). Linezolid represented by Formula B below (manufactured by Pfizer) was used as a control and bacterial activity thereof was compared with those of the test materials.

[1] = system: Staphylococcus epidermidis
Procedure: as §1, §2, §3

[2] = system: Linezolid and Vancomycin Resistant Enterococcus faecalis
Procedure: as §1, §2, §3

[3] = system: Vancomycin Resistant Enterococcus faecium
Procedure: as §1, §2, §3

Enterococcus faecalis = system: Enterococcus faecalis
Procedure: as §1, §2, §3

[4] = system: Vancomycin Resistant Enterococcus faecalis
Procedure: as §1, §2, §3

[5] = system: Methicillin Resistant Staphylococcus epidermidis
Procedure: as §1, §2, §3

Staphylococcus aureus = system: Staphylococcus aureus
Procedure: as §1, §2, §3

[6] = system: Linezolid and Vancomycin Resistant Enterococcus faecium (strain 11)
Procedure: as §1, §2, §3

[7] = system: Methicillin Resistant Staphylococcus aureus
Procedure: as §1, §2, §3

[8] = system: Linezolid and Vancomycin Resistant Enterococcus faecium (strain 10)
Procedure: as §1, §2, §3

Enterococcus faecium = system: Enterococcus faecium
Procedure: as §1, §2, §3

[9] = Moraxella catarrhalis, strain 12, M. catarrhalis, read-out: MIC90
[10] = Staphylococcus epidermidis, strain 3, S. epidermidis, read-out: MIC90
[11] = Enterococcus faecalis, strain 7, E. faecalis VanA LR, read-out: MIC90
[12] = Enterococcus faecium, strain 9, E. faecium VanA, read-out: MIC90
[13] = Enterococcus faecalis, strain 5, E. faecalis, read-out: MIC90
[14] = Enterococcus faecalis, strain 6, E. faecalis VanA, read-out: MIC90
[15] = Staphylococcus epidermidis, strain 4, S. epidermidis MR, read-out: MIC90
[16] = Staphylococcus aureus, strain 1, S. aureus, read-out: MIC90
[17] = Enterococcus faecium, strain 11, E. faecium VanA LR, read-out: MIC90
[18] = Staphylococcus aureus, strain 2, S. aureus MR, read-out: MIC90
[19] = Enterococcus faecium, strain 10, E. faecium VanA LR, read-out: MIC90
[20] = Enterococcus faecium, strain 8, E. faecium, read-out: MIC90

Row | MIC90 (Moraxella catarrhalis; [9]) [µg/mL] | MIC90 [1, 10] [µg/mL] | MIC90 [2, 11] [µg/mL] | MIC90 [3, 12] [µg/mL] | MIC90 (Enterococcus faecalis; [13]) [µg/mL] | MIC90 [4, 14] [µg/mL] | MIC90 [5, 15] [µg/mL] | MIC90 (Staphylococcus aureus; [16]) [µg/mL] | SMILES | MIC90 (Moraxella catarrhalis; Moraxella catarrhalis) [µg/mL] | MIC90 ([1]; Staphylococcus epidermidis) [µg/mL] | MIC90 ([2]; Enterococcus faecalis) [µg/mL] | MIC90 ([3]; Enterococcus faecium) [µg/mL] | MIC90 (Enterococcus faecalis; Enterococcus faecalis) [µg/mL] | MIC90 ([4]; Enterococcus faecalis) [µg/mL] | MIC90 ([5]; Staphylococcus epidermidis) [µg/mL] | MIC90 (Staphylococcus aureus; Staphylococcus aureus) [µg/mL] | MIC90 ([6]; Enterococcus faecium) [µg/mL] | MIC90 ([7]; Staphylococcus aureus) [µg/mL] | MIC90 ([8]; Enterococcus faecium) [µg/mL] | MIC90 (Enterococcus faecium; Enterococcus faecium) [µg/mL] | other results
1 | – | – | – | – | – | – | – | – | CC(=O)NC[C@H]1CN(c2ccc(-c3ccc(N4C=NNCC4)nc3)c(F)c2)C(=O)O1 [Compound 2] | 4 (≈ 9.7 µM) | 0.5 (≈ 1.21 µM) | 2 (≈ 4.85 µM) | 0.5 (≈ 1.21 µM) | 0.5 (≈ 1.21 µM) | 0.5 (≈ 1.21 µM) | 1 (≈ 2.42 µM) | 0.5 (≈ 1.21 µM) | 2 (≈ 4.85 µM) | 1 (≈ 2.42 µM) | 2 (≈ 4.85 µM) | 0.5 (≈ 1.21 µM) | –
2 | 8 (≈ 23.7 µM) | 1 (≈ 2.96 µM) | 32 (≈ 94.9 µM) | 2 (≈ 5.93 µM) | 2 (≈ 5.93 µM) | 2 (≈ 5.93 µM) | 2 (≈ 5.93 µM) | 1 (≈ 2.96 µM) | CC(=O)NC[C@H]1CN(c2ccc(N3CCOCC3)c(F)c2)C(=O)O1 [LZD, Linezolid, reference compound] | – | – | – | – | – | – | – | – | – | – | – | – | MIC90 [6, 17]: 64 µg/mL (≈ 190 µM); MIC90 [7, 18]: 2 µg/mL (≈ 5.93 µM); MIC90 [8, 19]: 32 µg/mL (≈ 94.9 µM); MIC90 (Enterococcus faecium; [20]): 1 µg/mL (≈ 2.96 µM)
3 | 4 (≈ 9.36 µM) | 0.5 (≈ 1.17 µM) | 4 (≈ 9.36 µM) | 1 (≈ 2.34 µM) | 1 (≈ 2.34 µM) | 1 (≈ 2.34 µM) | 4 (≈ 9.36 µM) | 0.5 (≈ 1.17 µM) | CC(=O)NC[C@H]1CN(c2ccc(-c3ccc(N4CCON=C4C)nc3)c(F)c2)C(=O)O1 [Compound 62] | – | – | – | – | – | – | – | – | – | – | – | – | MIC90 [6, 17]: 4 µg/mL (≈ 9.36 µM); MIC90 [7, 18]: 2 µg/mL (≈ 4.68 µM); MIC90 [8, 19]: 8 µg/mL (≈ 18.7 µM); MIC90 (Enterococcus faecium; [20]): 0.5 µg/mL (≈ 1.17 µM)
4 | – | – | – | – | – | – | – | – | C#CCN1CCN(c2ccc(-c3ccc(N4C[C@H](CNC(C)=O)OC4=O)cc3F)cn2)C=N1 [Compound 8] | 2 (≈ 4.44 µM) | 0.5 (≈ 1.11 µM) | 4 (≈ 8.88 µM) | 0.5 (≈ 1.11 µM) | 0.5 (≈ 1.11 µM) | 1 (≈ 2.22 µM) | 1 (≈ 2.22 µM) | 0.25 (≈ 0.555 µM) | 4 (≈ 8.88 µM) | 1 (≈ 2.22 µM) | 4 (≈ 8.88 µM) | 1 (≈ 2.22 µM) | –
5 | – | – | – | – | – | – | – | – | O=C(C(O)CO)N1CCN(c2ccc(-c3ccc(N4C[C@H](CNc5ccon5)OC4=O)cc3F)cn2)C=N1 (stereo partly shown) [Compound 43] | – | – | – | – | – | – | – | – | – | – | – | – | MIC90 (Moraxella catarrhalis; strain 12, M. catarrhalis): 2 µg/mL (≈ 3.81 µM); MIC90 ([1]; strain 3, S. epidermidis): 1 µg/mL (≈ 1.9 µM); MIC90 ([2]; strain 7, E. faecalis VanA LR): 2 µg/mL (≈ 3.81 µM); MIC90 ([3]; strain 9, E. faecium VanA): 0.5 µg/mL (≈ 0.951 µM); MIC90 (Enterococcus faecalis; strain 5, E. faecalis): 0.5 µg/mL (≈ 0.951 µM); MIC90 ([4]; strain 6, E. faecalis VanA): 1 µg/mL (≈ 1.9 µM); MIC90 ([5]; strain 4, S. epidermidis MR): 2 µg/mL (≈ 3.81 µM); MIC90 (Staphylococcus aureus; strain 1, S. aureus): 0.25 µg/mL (≈ 0.476 µM); MIC90 ([6]; strain 11, E. faecium VanA LR): 4 µg/mL (≈ 7.61 µM); MIC90 ([7]; strain 2, S. aureus MR): 0.5 µg/mL (≈ 0.951 µM); MIC90 ([8]; strain 10, E. faecium VanA LR): 4 µg/mL (≈ 7.61 µM); MIC90 (Enterococcus faecium; strain 8, E. faecium): 0.25 µg/mL (≈ 0.476 µM)
6 | – | – | – | – | – | – | – | – | COC(=O)NC[C@H]1CN(c2ccc(-c3ccc(N4C=NN(C)CC4)nc3)c(F)c2)C(=O)O1 [Compound 24] | 4 (≈ 9.04 µM) | 0.5 (≈ 1.13 µM) | 4 (≈ 9.04 µM) | 0.5 (≈ 1.13 µM) | 1 (≈ 2.26 µM) | 1 (≈ 2.26 µM) | 2 (≈ 4.52 µM) | 0.5 (≈ 1.13 µM) | 8 (≈ 18.1 µM) | 1 (≈ 2.26 µM) | 4 (≈ 9.04 µM) | 0.5 (≈ 1.13 µM) | –
7 | – | – | – | – | – | – | – | – | CC(=O)NC[C@H]1CN(c2ccc(-c3ccc(N4C=NN(C(=O)CO)CC4)nc3)c(F)c2)C(=O)O1 [Compound 11] | 1 (≈ 2.13 µM) | 0.063 (≈ 0.134 µM) | 0.5 (≈ 1.06 µM) | 0.125 (≈ 0.266 µM) | 0.125 (≈ 0.266 µM) | 0.125 (≈ 0.266 µM) | 0.25 (≈ 0.531 µM) | 0.063 (≈ 0.134 µM) | 1 (≈ 2.13 µM) | 0.25 (≈ 0.531 µM) | 0.5 (≈ 1.06 µM) | 0.063 (≈ 0.134 µM) | antibacterial activity against linezolid-resistant bacteria (in words) ([2]; Enterococcus faecalis and Enterococcus faecium which are resistant to linezolid): very high antibacterial activity
8 | – | – | – | – | – | – | – | – | CC(=O)NC[C@H]1CN(c2ccc(-c3ccc(N4C=NN(C(=O)C5COC(C)(C)O5)CC4)nc3)c(F)c2)C(=O)O1 (stereo partly shown) [Compound 20] | 8 (≈ 14.8 µM) | 4 (≈ 7.4 µM) | 8 (≈ 14.8 µM) | 2 (≈ 3.7 µM) | 2 (≈ 3.7 µM) | 2 (≈ 3.7 µM) | 4 (≈ 7.4 µM) | 2 (≈ 3.7 µM) | 8 (≈ 14.8 µM) | 8 (≈ 14.8 µM) | 8 (≈ 14.8 µM) | 2 (≈ 3.7 µM) | –
9 | 4 (≈ 9.02 µM) | 1 (≈ 2.26 µM) | 8 (≈ 18 µM) | 1 (≈ 2.26 µM) | 2 (≈ 4.51 µM) | 2 (≈ 4.51 µM) | 4 (≈ 9.02 µM) | 1 (≈ 2.26 µM) | COC(=O)NC[C@H]1CN(c2ccc(-c3ccc(C4=NOCCN4C)nc3)c(F)c2)C(=O)O1 [Compound 70] | – | – | – | – | – | – | – | – | – | – | – | – | MIC90 [6, 17]: 8 µg/mL (≈ 18 µM); MIC90 [7, 18]: 2 µg/mL (≈ 4.51 µM); MIC90 [8, 19]: 8 µg/mL (≈ 18 µM); MIC90 (Enterococcus faecium; [20]): 1 µg/mL (≈ 2.26 µM)
